According to patent publication US12226403B2 (SPERO THERAPEUTICS, INC., priority 2016, dated 2025):

Assays:
[1] = Previously generated IV data; details: in vivo, 10 mg/kg dose
Description: Cmax was reduced with the modified release formulation compared to the immediate release (free base and HBr) formulation but AUCall was relatively constant between the formulations. AUCinf could not be calculated due to the variability in the terminal elimination profile. […] Mean residence time was increased in the extended release formulation.

[2] = PK parameters for oral administration to monkeys; assay type: in vivo; details: cynomolgus monkey, plasma, 100 mg; oral tablets vs previously generated IV data, estimated; read-out: bioavailability of tebipenem
Experimental: Each animal received a one week wash out prior to the next dose and each served as its own control. Blood samples were collected into K2EDTA tubes before processing to plasma. Samples were obtained at 15 minutes, 30 minutes, 1 hours, 2 hours, 4 hours, 6 hours, 8 hours, 10 hours, 12 hours, 16 hours, and 24 hours post administration. […] Non-compartmental analysis used to derive pharmacokinetic parameters of the composite time vs. concentration profiles were performed for each dose level using Phoenix Winnonlin v. 6.4. Plasma concentration of tebipenem for each time point was determined by HPLC.

AUC [1]: 13100 ng·h/mL
bioavailability [2]: 39 to 50%
SMILES: C[C@@H](O)[C@H]1C(=O)N2C(C(=O)O)=C(SC3CN(C4=NCCS4)C3)[C@H](C)[C@H]12 [tebipenem]
